We go through 3 molecules from ChEMBL document CHEMBL1201862, “PubChem BioAssay data set” (2004).

Structures are written as SMILES. The source made the active and inactive calls. Where only a bound is given, the exact number is not on record here.

Common to all, as to assay type: functional
Test [1] has as its target T1, Corticotropin-releasing factor receptor 2/Corticotropin-releasing factor-binding protein (Homo sapiens, UniProt P24387+Q13324).
T1 sequence (Q13324 whole entry): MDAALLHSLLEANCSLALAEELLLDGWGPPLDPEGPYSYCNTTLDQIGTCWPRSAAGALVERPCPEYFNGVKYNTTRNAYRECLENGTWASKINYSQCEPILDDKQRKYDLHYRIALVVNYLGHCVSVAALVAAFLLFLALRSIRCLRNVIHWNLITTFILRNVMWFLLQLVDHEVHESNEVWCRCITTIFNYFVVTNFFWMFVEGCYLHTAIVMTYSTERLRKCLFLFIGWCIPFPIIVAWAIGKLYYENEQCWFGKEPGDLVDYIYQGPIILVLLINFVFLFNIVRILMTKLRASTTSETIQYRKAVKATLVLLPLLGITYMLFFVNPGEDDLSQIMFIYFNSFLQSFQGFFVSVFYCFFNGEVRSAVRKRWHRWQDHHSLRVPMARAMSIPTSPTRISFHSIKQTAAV
T1 sequence (P24387 whole entry): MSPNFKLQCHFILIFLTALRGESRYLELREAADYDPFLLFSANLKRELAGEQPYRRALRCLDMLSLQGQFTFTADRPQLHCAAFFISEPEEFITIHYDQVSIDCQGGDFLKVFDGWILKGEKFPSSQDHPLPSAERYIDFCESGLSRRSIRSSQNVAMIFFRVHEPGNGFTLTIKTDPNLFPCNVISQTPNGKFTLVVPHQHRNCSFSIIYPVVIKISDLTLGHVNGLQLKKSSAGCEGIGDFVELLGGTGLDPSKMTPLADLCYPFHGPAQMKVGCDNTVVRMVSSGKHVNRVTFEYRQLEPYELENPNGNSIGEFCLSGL
Kind of test: Dose Response confirmation of uHTS hits for small molecule antagonists of the CRF-binding protein and CRF-R2 receptor complex. Conditions: read-out: IC50_Mean.

For another test, the target named is T2, Protein RecA (Mycobacterium tuberculosis, UniProt P9WHJ3).
T2 sequence (P9WHJ3 whole entry): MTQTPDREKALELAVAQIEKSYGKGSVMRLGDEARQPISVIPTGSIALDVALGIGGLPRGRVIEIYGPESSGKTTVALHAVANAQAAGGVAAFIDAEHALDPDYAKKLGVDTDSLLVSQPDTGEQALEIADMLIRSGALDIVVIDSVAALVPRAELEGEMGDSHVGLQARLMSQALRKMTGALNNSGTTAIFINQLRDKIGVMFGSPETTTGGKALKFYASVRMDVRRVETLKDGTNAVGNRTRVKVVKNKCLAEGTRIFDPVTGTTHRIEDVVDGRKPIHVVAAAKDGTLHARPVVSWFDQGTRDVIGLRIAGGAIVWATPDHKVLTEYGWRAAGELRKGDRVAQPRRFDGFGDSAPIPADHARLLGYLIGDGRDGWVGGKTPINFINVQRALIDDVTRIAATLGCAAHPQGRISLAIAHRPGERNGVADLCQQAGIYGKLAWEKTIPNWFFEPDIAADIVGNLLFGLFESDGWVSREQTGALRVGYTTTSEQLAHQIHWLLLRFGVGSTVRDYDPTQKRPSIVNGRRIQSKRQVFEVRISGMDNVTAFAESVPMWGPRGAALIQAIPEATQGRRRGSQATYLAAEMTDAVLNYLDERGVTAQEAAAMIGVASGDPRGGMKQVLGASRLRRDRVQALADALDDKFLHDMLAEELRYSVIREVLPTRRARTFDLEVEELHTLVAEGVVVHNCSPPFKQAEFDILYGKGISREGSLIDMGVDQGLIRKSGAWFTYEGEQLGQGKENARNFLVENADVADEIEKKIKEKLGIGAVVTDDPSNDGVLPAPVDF
In words: Fluorescence Cell-Free Homogeneous Dose Retest to Identify Inhibitors of RecA-Intein Splicing Activity. [Related pubchem assays (depositor defined):AID2097, AID2223, AID489010, AID492950].

The target in test [2] is Dual specificity protein kinase CLK2 (Homo sapiens, UniProt P49760).
Test [3] addresses cGMP-dependent protein kinase 1 (Homo sapiens, UniProt Q13976).
Test [4] deals with 5'-AMP-activated protein kinase catalytic subunit alpha-1 (Homo sapiens, UniProt Q13131).
The target of test [5] is Serine/threonine-protein kinase 17A (Homo sapiens, UniProt Q9UEE5).
Test [6] concerns the target Tyrosine-protein kinase BTK (Homo sapiens, UniProt Q06187).
In test [7] the target is Serine/threonine-protein kinase PAK 4 (Homo sapiens, UniProt O96013).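 Note: value obtained within a kinome profiling panel in which PAK4 was one of the panel members.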
The target of test [8] is Casein kinase I isoform alpha (Homo sapiens, UniProt P48729).
Test [9] deals with Serine/threonine-protein kinase N2 (Homo sapiens, UniProt Q16513).
Test [10] concerns the target Serine/threonine-protein kinase TAO1 (Homo sapiens, UniProt Q7L7X3).
For test [11], the target named is Proto-oncogene tyrosine-protein kinase Src (Homo sapiens, UniProt P12931).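 Note: SRC entry within a kinome-wide kinase profiling panel.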
Test [12] addresses Tyrosine-protein kinase Srms (Homo sapiens, UniProt Q9H3Y6).
Test [13] addresses MAP kinase-activated protein kinase 3 (Homo sapiens, UniProt Q16644).
Test [14] addresses Tyrosine-protein kinase ABL1 (Homo sapiens, UniProt P00519).
Test [15] deals with Vascular endothelial growth factor receptor 2 (Homo sapiens, UniProt P35968).
For test [16], the target named is BDNF/NT-3 growth factors receptor (Homo sapiens, UniProt Q16620).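 Note: NTRK2 measured as one member of a broad kinome-wide kinase profiling panel.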
BDNF/NT-3 growth factors receptor, sequence (Q16620 whole entry): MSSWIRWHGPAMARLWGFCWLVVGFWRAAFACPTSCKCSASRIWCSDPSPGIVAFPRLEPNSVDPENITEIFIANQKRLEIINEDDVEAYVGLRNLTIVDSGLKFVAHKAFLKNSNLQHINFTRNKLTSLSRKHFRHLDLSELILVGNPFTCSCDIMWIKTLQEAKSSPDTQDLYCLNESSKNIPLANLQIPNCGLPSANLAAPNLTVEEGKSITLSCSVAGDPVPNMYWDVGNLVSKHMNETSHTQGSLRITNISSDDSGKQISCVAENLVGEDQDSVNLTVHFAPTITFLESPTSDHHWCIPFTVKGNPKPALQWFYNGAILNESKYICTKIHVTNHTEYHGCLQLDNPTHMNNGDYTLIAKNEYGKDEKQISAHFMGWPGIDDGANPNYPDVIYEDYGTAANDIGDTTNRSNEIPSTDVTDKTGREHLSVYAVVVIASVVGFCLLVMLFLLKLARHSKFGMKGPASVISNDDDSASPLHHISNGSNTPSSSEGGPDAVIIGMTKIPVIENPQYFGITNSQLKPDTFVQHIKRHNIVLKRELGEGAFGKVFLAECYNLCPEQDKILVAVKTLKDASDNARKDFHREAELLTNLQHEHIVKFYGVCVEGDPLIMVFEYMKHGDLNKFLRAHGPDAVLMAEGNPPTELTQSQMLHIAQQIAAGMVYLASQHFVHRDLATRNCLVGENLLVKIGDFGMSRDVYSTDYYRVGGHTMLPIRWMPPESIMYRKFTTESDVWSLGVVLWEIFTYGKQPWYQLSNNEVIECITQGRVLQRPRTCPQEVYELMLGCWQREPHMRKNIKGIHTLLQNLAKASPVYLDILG

Serine/threonine-protein kinase N2, sequence (Q16513 whole entry): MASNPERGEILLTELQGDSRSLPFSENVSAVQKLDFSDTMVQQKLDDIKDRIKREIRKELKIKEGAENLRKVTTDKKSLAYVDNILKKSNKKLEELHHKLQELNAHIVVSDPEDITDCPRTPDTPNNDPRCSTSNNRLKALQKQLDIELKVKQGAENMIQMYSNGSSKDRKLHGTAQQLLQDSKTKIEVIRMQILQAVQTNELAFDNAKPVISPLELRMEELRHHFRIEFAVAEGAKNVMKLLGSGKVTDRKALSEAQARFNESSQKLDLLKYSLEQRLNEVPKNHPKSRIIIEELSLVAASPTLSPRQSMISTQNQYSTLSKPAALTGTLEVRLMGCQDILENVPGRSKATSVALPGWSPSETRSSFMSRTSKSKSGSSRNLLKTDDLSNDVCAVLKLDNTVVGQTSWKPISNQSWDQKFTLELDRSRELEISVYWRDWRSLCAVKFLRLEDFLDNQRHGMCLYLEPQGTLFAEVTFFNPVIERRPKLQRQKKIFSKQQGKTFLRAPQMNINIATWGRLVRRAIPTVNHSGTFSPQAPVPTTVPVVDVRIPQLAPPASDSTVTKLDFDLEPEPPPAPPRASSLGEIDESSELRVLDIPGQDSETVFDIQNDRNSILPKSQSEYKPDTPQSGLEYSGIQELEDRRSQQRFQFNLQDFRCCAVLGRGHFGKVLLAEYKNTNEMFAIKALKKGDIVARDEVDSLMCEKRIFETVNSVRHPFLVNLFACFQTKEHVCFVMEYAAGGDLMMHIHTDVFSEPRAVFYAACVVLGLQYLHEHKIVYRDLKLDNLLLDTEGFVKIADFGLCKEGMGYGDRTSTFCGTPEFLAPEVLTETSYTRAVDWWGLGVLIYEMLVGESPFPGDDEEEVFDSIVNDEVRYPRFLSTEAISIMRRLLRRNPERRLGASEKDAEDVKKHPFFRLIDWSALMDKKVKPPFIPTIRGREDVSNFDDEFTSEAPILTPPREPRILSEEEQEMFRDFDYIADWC
MAP kinase-activated protein kinase 3, sequence (Q16644 whole entry): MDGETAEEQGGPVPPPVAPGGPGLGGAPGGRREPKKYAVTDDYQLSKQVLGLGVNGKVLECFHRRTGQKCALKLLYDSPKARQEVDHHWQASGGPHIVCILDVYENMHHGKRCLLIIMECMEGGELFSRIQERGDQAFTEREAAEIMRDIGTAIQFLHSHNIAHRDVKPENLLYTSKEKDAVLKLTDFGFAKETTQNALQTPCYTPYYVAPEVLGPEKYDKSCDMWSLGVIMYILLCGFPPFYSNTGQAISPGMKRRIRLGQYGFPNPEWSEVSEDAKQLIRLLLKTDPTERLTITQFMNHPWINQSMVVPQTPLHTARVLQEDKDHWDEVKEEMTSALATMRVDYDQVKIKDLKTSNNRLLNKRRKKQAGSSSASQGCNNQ
Tyrosine-protein kinase BTK, sequence (Q06187 whole entry): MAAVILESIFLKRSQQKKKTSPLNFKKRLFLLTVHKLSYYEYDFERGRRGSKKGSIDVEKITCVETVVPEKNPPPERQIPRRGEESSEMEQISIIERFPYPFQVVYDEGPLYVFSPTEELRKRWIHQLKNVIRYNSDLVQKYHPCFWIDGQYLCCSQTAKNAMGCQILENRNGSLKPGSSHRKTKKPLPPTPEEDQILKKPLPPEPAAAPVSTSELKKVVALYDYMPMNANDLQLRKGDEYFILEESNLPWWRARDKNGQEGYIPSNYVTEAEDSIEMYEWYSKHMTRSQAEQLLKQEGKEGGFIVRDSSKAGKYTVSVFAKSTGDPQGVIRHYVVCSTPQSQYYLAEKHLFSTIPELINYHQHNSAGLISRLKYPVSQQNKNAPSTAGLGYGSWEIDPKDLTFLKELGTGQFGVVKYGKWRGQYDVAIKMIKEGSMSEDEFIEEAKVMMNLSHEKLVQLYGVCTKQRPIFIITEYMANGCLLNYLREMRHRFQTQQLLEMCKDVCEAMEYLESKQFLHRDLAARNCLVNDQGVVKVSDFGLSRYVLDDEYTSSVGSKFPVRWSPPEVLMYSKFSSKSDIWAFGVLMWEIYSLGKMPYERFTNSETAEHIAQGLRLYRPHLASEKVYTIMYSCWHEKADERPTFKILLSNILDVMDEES
Vascular endothelial growth factor receptor 2, sequence (P35968 whole entry): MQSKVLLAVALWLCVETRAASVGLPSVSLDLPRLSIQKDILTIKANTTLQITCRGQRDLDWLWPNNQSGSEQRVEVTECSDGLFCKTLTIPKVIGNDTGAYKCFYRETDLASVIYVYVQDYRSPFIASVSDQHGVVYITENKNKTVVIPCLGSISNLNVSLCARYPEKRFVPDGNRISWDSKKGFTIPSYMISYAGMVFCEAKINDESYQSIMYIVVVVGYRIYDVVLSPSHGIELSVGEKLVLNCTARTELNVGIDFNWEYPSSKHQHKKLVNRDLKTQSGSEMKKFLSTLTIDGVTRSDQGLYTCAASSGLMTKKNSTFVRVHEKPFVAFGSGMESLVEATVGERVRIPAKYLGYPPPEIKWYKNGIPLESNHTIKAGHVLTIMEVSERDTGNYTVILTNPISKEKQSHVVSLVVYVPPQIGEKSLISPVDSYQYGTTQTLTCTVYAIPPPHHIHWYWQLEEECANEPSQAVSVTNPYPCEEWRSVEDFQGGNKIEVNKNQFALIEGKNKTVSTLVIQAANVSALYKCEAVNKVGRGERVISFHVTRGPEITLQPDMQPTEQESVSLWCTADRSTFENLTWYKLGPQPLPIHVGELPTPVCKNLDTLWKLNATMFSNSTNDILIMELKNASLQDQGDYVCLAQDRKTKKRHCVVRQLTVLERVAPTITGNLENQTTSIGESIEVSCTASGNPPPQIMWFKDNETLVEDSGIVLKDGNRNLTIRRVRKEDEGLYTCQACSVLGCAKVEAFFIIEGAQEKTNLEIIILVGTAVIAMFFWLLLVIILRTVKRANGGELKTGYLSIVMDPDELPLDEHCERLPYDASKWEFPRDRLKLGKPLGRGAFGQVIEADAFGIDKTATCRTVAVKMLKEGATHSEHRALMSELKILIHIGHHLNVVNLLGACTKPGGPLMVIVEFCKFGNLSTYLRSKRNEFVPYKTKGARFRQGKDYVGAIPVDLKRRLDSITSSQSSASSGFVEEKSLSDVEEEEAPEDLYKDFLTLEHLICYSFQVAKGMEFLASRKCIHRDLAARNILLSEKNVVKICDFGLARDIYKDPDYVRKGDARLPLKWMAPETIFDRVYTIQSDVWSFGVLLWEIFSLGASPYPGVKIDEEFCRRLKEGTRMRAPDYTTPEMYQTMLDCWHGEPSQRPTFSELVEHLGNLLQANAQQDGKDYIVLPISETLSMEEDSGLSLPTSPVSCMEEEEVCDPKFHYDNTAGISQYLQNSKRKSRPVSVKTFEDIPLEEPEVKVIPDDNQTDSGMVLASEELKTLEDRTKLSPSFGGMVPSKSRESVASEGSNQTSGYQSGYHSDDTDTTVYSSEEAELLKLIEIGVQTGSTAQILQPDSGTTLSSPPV
Casein kinase I isoform alpha, sequence (P48729 whole entry, canonical isoform): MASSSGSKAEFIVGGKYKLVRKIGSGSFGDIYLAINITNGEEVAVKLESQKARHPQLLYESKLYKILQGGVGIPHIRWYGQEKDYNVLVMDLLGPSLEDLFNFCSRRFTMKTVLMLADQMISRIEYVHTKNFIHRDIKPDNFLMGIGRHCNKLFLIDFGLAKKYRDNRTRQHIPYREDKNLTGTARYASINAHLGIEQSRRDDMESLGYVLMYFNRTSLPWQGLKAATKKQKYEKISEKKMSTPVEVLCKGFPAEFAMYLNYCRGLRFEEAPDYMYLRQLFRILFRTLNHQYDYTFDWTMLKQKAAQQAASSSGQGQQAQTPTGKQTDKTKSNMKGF
Proto-oncogene tyrosine-protein kinase Src, sequence (P12931 2-536 limits assumed): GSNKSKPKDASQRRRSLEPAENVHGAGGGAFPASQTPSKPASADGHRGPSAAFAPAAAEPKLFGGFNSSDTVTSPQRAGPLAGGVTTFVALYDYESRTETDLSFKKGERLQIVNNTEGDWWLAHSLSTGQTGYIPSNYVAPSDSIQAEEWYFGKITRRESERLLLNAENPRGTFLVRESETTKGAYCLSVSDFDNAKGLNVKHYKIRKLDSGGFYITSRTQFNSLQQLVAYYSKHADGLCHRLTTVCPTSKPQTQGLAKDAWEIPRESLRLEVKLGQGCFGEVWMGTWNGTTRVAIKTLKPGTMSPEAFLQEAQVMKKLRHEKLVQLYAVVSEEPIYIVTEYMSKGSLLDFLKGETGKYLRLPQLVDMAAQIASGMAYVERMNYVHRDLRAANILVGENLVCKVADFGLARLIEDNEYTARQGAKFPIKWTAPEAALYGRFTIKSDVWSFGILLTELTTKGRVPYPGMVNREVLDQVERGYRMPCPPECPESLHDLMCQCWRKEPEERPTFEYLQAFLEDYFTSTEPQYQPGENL

`O=C(COC(=O)c1ccc([N+](=O)[O-])s1)Nc1cccc(S(=O)(=O)/N=C2/CCCCCN2)c1`: in [1], the IC50 is > 47.1 µM (inactive).
Turning to `COc1ccc(C(C[N+](=O)[O-])c2c(C)[nH]n(-c3ccccc3)c2=O)cc1` (configuration not stated), the EC50 on Protein RecA is 3.3 µM (active).
As for `Oc1c2ccccc2c2c3c(cccc13)N=N2` [SP-600125], the Ki was 0.631 µM (active) in test [2]; > 2 µM (inactive) in test [3]; > 1.58 µM (inactive) in test [4]; 0.0398 µM (active) in test [5]; > 1.26 µM (inactive) in test [6]; > 5.01 µM (inactive) in test [7]. Moreover, the Ki is 0.316 µM (active) in [8]; > 7.94 µM (inactive) in test [9]; 5.01 µM (active) in test [10]; > 2 µM (inactive) in test [11]; > 1.58 µM (inactive) in test [12]; > 10 µM (inactive) in [13]. The Ki in test [14] was > 0.631 µM (inactive); in test [15] it was 0.631 µM (active); in [16], 0.794 µM (active).

A word on the EC50: it is the concentration needed to bring the measured effect to its halfway point. For orientation: Ki means the dissociation constant of the complex between target and ligand, obtained from inhibition or displacement.
